Measured values published in the supplement of paper PMC10307832.

Assays:
Assay in all cases: relative viability (nuclei count vs DMSO), 5 days (fraction); higher = more cells survive
[1] = compound: CC1CC(=O)N(C2=CN=C(N=C2N1C3CCCC3)NC4=C(C=C(C=C4)C(=O)NC5CCN(CC5)C)OC)C [NPK76-II-72-1] + CS(=O)(=O)CCNCc1ccc(-c2ccc3ncnc(Nc4ccc(OCc5cccc(F)c5)c(Cl)c4)c3c2)o1 [Lapatinib] (partner 2 µM)
Procedure, shortened: (§1)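 Lung cancer cell lines in 1536-well plates got either a single drug or a fixed anchor-drug dose together with five library-drug doses (not always all listed) in √10 steps, by pin tool, on the day after seeding. Nuclei were counted after 5 days, and relative viability is the treated-to-vehicle ratio of nuclei counts. Values are medians of duplicate plates.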

BI-2536 + Crizotinib = compound: CC[C@@H]1C(=O)N(C)c2cnc(Nc3ccc(C(=O)NC4CCN(C)CC4)cc3OC)nc2N1C1CCCC1 [BI-2536] + C[C@@H](Oc1cc(-c2cnn(C3CCNCC3)c2)cnc1N)c1c(Cl)ccc(F)c1Cl [Crizotinib] (partner 1 µM)
Procedure, shortened: as §1

BI-2536 + Olaparib = compound: CC[C@@H]1C(=O)N(C)c2cnc(Nc3ccc(C(=O)NC4CCN(C)CC4)cc3OC)nc2N1C1CCCC1 [BI-2536] + O=C(c1cc(Cc2n[nH]c(=O)c3ccccc23)ccc1F)N1CCN(C(=O)C2CC2)CC1 [Olaparib] (partner 8 µM)
Procedure, shortened: as §1

[2] = compound: CC1CC(=O)N(C2=CN=C(N=C2N1C3CCCC3)NC4=C(C=C(C=C4)C(=O)NC5CCN(CC5)C)OC)C [NPK76-II-72-1] + Cc1nc(Nc2ncc(C(=O)Nc3c(C)cccc3Cl)s2)cc(N2CCN(CCO)CC2)n1 [Dasatinib] (partner 0.075 µM)
Procedure, shortened: as §1

Cell Line	relative viability ([1]; first compound 0.01 µM)	relative viability ([1]; first compound 0.03162 µM)	relative viability ([1]; first compound 0.1 µM)	relative viability ([1]; first compound 0.3162 µM)	relative viability ([1]; first compound 1 µM)	relative viability (BI-2536 + Crizotinib; first compound 0.01 µM)	relative viability (BI-2536 + Crizotinib; first compound 0.03162 µM)	relative viability (BI-2536 + Crizotinib; first compound 0.1 µM)	relative viability (BI-2536 + Crizotinib; first compound 0.3162 µM)	relative viability (BI-2536 + Crizotinib; first compound 1 µM)	relative viability (BI-2536 + Olaparib; first compound 0.01 µM)	relative viability (BI-2536 + Olaparib; first compound 0.03162 µM)	relative viability (BI-2536 + Olaparib; first compound 0.1 µM)	relative viability (BI-2536 + Olaparib; first compound 0.3162 µM)	relative viability (BI-2536 + Olaparib; first compound 1 µM)	relative viability ([2]; first compound 0.01 µM)	relative viability ([2]; first compound 0.03162 µM)	relative viability ([2]; first compound 0.1 µM)	relative viability ([2]; first compound 1 µM)	relative viability ([2]; first compound 0.3162 µM)
EKVX	0.206	0.193	0.22	0.222	0.236	1.01	0.745	1.07	0.217	0.147	0.856	0.827	0.582	0.211	0.177	0.58	0.528	0.519	0.652	–
HOP-62	1.08	0.958	1.02	0.911	1.22	0.986	0.949	0.78	0.134	0.12	–	0.309	0.191	0.101	0.089	0.585	0.653	0.633	0.64	0.672
NCI-H2126	0.686	0.806	0.755	0.733	0.823	1.04	0.85	0.85	0.341	0.253	0.968	0.891	0.77	0.322	0.241	0.594	0.591	0.58	0.709	0.607
SW 1573	1.03	1.09	1.04	1	1.16	0.774	0.905	0.708	0.17	0.126	0.446	0.266	0.12	0.1	0.0718	0.46	0.592	0.556	0.509	0.589
NCI-H358	0.444	0.443	0.549	0.453	0.477	0.446	0.259	0.22	0.173	0.139	0.559	0.247	0.0974	0.0882	0.0802	0.162	0.14	0.156	0.149	–
EPLC-272H	0.905	0.968	1.01	1.04	1.11	0.901	0.577	–	0.0723	0.093	0.478	0.111	0.124	0.081	0.0599	0.318	–	0.332	0.357	0.251
PC-3 [JPC-3]	0.479	0.453	0.448	0.463	0.439	1.04	0.846	0.871	0.33	0.244	1.22	0.896	0.582	0.327	0.369	0.937	1.02	0.916	1.07	0.973
NCI-H650	1.17	0.912	0.723	–	0.925	0.597	0.347	0.271	0.21	0.17	0.407	0.28	0.237	0.146	0.105	0.457	0.455	0.411	0.494	0.423
NCI-H838	0.951	1.08	1.05	0.971	1.09	0.886	0.711	0.232	0.156	0.114	0.731	0.638	0.368	0.0986	0.0726	0.28	0.247	0.253	0.292	0.265
COR-L 105	0.404	0.375	0.358	0.367	0.345	0.798	0.611	0.394	0.288	0.264	0.655	0.668	0.679	0.404	0.296	0.33	0.317	0.384	0.467	0.323
NCI-H2405	1.13	1.11	1.09	1.04	1.09	0.807	0.778	0.532	0.223	0.312	0.855	0.547	0.325	0.281	0.416	0.236	0.209	0.194	0.212	0.213
NCI-H661	0.398	0.532	0.562	0.473	0.513	0.97	0.928	0.854	0.381	0.262	0.763	0.468	0.354	0.335	0.34	0.825	0.914	0.94	1.12	0.729
NCI-H1915	0.931	1.07	1.01	0.881	0.897	0.931	0.549	0.549	0.116	0.108	0.218	0.205	0.163	0.0887	0.0963	0.324	0.352	0.324	0.302	0.351
CAL-12T	0.571	0.749	0.632	–	0.777	0.532	0.295	0.409	0.128	0.155	0.682	0.596	0.493	0.167	0.19	0.369	0.379	0.364	0.391	0.319
LXF-289	0.881	0.91	0.891	0.934	0.889	0.822	0.693	0.456	0.0566	0.0678	1	0.719	0.343	0.0702	0.0622	0.211	0.199	0.199	0.238	0.218
NCI-H460	0.887	0.948	1.21	1.02	0.966	0.966	0.842	0.0283	0.0109	0.0112	0.488	0.421	0.268	0.0394	0.0262	0.512	0.543	0.497	0.501	0.458
